Entries after “also recorded” stand apart in the source; their conditions may differ. Non-standard residues stand in square brackets, D forms with d. Residues, ends and D or L forms follow the SMILES beside them. No end group written: not given here. Hyp = O=C(O)[C@@H]1C[C@@H](O)CN1; 2Thi = N[C@@H](Cc1cccs1)C(=O)O; Gly(N-cHex) = O=C(O)CNC1CCCCC1
Assays:
human B2R [1] = biological target: T1, human B2R (Homo sapiens, UniProt P30411); experiment: IP-One accumulation assay, human B2R-HEK293 cells; assay type: cell-based; settings: for EC50: IP1 accumulation, 30 min, room temperature, pH 7.4, 50 mM LiCl, human B2R-HEK293, 15,000 cells per well, mean of two independent experiments performed in duplicates, read-out: IP1 Assays (EC50; nM)
T1 construct: expressed in transfected cells; host or cells: QBI HEK 293A cells, lentiviral transduction with pCDH-BDKRB2, puromycin selection
T1 sequence (P30411 1-391): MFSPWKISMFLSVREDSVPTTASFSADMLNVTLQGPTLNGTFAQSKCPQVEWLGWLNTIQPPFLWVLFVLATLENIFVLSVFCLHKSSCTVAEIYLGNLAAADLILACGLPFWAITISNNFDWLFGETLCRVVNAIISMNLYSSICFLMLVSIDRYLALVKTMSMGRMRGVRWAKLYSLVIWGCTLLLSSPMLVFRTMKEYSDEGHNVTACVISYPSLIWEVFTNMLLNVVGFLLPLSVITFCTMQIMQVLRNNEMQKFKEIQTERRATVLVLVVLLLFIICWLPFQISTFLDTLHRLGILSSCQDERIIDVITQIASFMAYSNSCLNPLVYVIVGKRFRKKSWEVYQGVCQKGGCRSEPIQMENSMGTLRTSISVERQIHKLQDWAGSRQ
Procedure: The IP-One assay was performed on living, adherent human B2R-HEK293 cells according to the manufacturer’s recommendations (Cisbio, #62IPAPEB, Bedford, MA, USA). […] IP1-d2 and anti-IP1-Cryptate were added for at least 1 h. Fluorescence signal was measured using a Tecan M1000 plate reader (excitation at 320 nm and emission at 620 and 665 nm). EC50 values were calculated by curve-fitting using GraphPad Prism 8.2.

human B2R [2] = biological target: T1, human B2R; experiment: Radioligand displacement binding assay, [3H]BK, human B2R-HEK293 cells; settings: for IC50: displacement of 1 nM [3H]BK, living adherent HEK293 cells stably expressing human B2R, serum-free DMEM, 1.5 h, 4 °C, mean of two independent experiments performed in duplicates; for binding affinity at human B2R, in words: HEK293 cells stably expressing human B2R
Procedure: The pCDH-BDKRB2 vector was produced from the plasmid pcDNA3.1/human BDKRB2 by PCR amplification using the primers 5′-[…]-3′ and 5′-[…]-3′, and introduced into pCDH-CMV-MCS-EF1 vector using BamHI et XbaI restriction sites. Lentiviruses were produced from pCDH-BDKRB2 vector in HEK293T cells using the X-tremeGENE HP transfection reagent (Millipore-Sigma, Oakville, ON, Canada). Lentiviruses were harvested 48 h post-transfection and used to infect QBI HEK 293A cells (ATCC). Transduced cells were selected using 5 µg/mL of puromycin (Thermo Fisher, Burlington, On, Canada).
Radioligand displacement binding assays were performed as we previously described, with slight modifications. HEK293 cells stably expressing human B2R were used for these assays (see text above). […] Radioactivity of samples was measured by a β-scintillation counter (PerkinElmer, Woodbridge, On, Canada). Binding affinities of peptides were expressed in terms of IC50 values—the molar concentration of an unlabeled agonist causing 50% displacement of specific binding (GraphPad Prism 8.2).

BBB / brain cancer = tested on: BBB / brain cancer; parameters: method as in PMID 22709590; settings: ref [33]; cited from earlier work
GBM cells = settings: vs. temozolomide (TMZ); ref [33]; cited from earlier work
[3] = tested on: BBB, irradiated mouse brain; experiment: DCE-MRI of BBB permeability to Gd-DTPA in irradiated mouse brain; assay type: in vivo; settings: T1-weighted, 10 months after 45 Gy; Gd-DTPA alone or with NG291 50 µg/kg i.v.
Description: Female Balb/c mice were anesthetized using 1.5 L/min oxygen containing isoflurane (3% for induction, 2% for maintenance) and positioned on a custom-designed stereotactic bed compatible with the Leksell Gamma Knife Perfexion (Elekta AB, Stockholm, Sweden). A maximum dose of 45 Gy (23.1 Gy at the 50% isodose) was delivered through 4 mm collimators in the right hemisphere of the brain. Mouse and human brains have different sensitivities to radiation. This dose was selected because it allows the development and slow progression of radiation necrosis (approximatively appearing at 17 months post-irradiation in T2-weighted MRI; Figure 4), similar to what may be observed in brain cancer patients who received radiotherapy. After irradiation, mice were placed on a heating pad to recover, and were then returned to their cages.
For dynamic contrast-enhanced (DCE)-MRI imaging, pre-contrast T1-weighted imaging with an array of flip angles (α = 10°, 20°, 25°, 35°, 50°) was performed to acquire a T1 map with the following parameters: TR = 100 ms, TE = 2.79 ms, data matrix = 128 × 128, FOV = 20 × 20 mm^2; 1 average; 10 slices; 1 mm slice thickness. Then, a dynamic acquisition with the same parameters and a fixed angle at 30° was acquired before, during, and after injection of contrast agent. […]

normal mice = experiment: Tolerability / blood pressure effect in anesthetized normal mice; assay type: in vivo, mouse
[4] = tested on: angiotensin-converting enzyme (ACE, alias kininase II); settings: ref [26]; cited from earlier work
[5] = tested on: 4T1-luc mammary cancer cells, brain metastases in mice; experiment: 4T1-luc breast cancer brain metastasis model; assay type: in vivo, mouse; settings: NG291 50 μg/kg over 5 min i.v., single dose, 18 days, 6–8 animals
Procedure: Mice were anesthetized using 1.5 L/min oxygen-containing isoflurane (3% for induction, 2% for maintenance) and secured with tape in a supine position on a heating pad. A total of 1 × 10^5 4T1-Luc cells suspended in 100 µL of sterile saline was slowly injected into the left ventricle of the heart using a 1 mL Hamilton syringe mounted with a 30G needle as described previously. For BBB disruption experiments, a cannula was placed in the caudal vein and a single dose of NG291 (50 µg/kg/5 min) was infused into the caudal vein while simultaneously injecting the cancer cells intracardially. Successful intracardiac injection and tumor development was evaluated weekly by bioluminescence imaging. The development of brain metastatic tumor burden was determined by histological analysis.
Brain sections from mice inoculated with 4T1-Luc cells were stained with hematoxylin-eosin (H and E) for histological examination and metastases quantification using the NanoZoomer Digital Pathology software (Hamamatsu, NDP.view version 2.7.25). H and E staining was performed on brain sections every 20–30 µm. The relative total area and number of metastatic foci in the entire brain section were calculated from manual delineation of metastases in digital images of H and E-stained brain slides using the NanoZoomer NDP.view2 viewing software free hand tool. […] A total of 68 slices were analyzed.

leucocytes, brain = settings: exogenous BK; ref [21],[24]; cited from earlier work
BBB / BTB = tested on: BBB / BTB; parameters: method as in 2 sources, one per row (each row's own in cited_ref): ref [2],[13] = [2]; PMID 15153840; doi:10.1177/107327480401100304; 2. Black K.L. Ningaraj N.S. Modulation of brain tumor capillaries for enhanced drug delivery selectively to brain tumor Cancer Control. 2004 11 165 173 10.1177/107327480401100304 15153840 || [13]; PMID 11286321; doi:10.2165/00003088-200140020-00003; 13. Emerich D.F. Dean R.L. Osborn C. Bartus R.T. The development of the bradykinin agonist labradimil as a means to increase the permeability of the blood-brain barrier: From concept to clinical evalu ||| ref [2],[46],[47] = [2]; PMID 15153840; doi:10.1177/107327480401100304; 2. Black K.L. Ningaraj N.S. Modulation of brain tumor capillaries for enhanced drug delivery selectively to brain tumor Cancer Control. 2004 11 165 173 10.1177/107327480401100304 15153840 || [46]; PMID 20146088; doi:10.1007/s11060-010-0124-x; 46. Liu L.B. Xue Y.X. Liu Y.H. Bradykinin increases the permeability of the blood-tumor barrier by the caveolae-mediated transcellular pathway J. Neurooncol. 2010 99 187 194 10.1007/s11060-010-0124-x || [47]; PMID 12023511; doi:10.1124/jpet.301.3.838; 47. Ningaraj N.S. Rao M. Hashizume K. Asotra K. Black K.L. Regulation of blood-brain tumor barrier permeability by calcium-activated potassium channels J. Pharmacol. Exp. Ther. 2002 301 838 851 10.112; settings: increased numbers of pinocytotic vesicles or caveolae; ref [2],[46],[47]; cited from earlier work
Description: Kinin effects are mediated through specific activation of two types of receptors, namely, the kinin B1 (B1R) and B2 receptors (B2R), both belonging to the G-protein-coupled receptor family. […] The strategy exploiting targeted stimulation of the kinin receptors could perhaps ...

N=C(N)NCCC[C@@H](N)C(=O)N[C@@H](CCCNC(=N)N)C(=O)N1CCC[C@H]1C(=O)N1C[C@H](O)C[C@H]1C(=O)NCC(=O)N[C@H](C(=O)N[C@@H](CO)C(=O)N1[C@H](C(=O)N[C@H](C(=O)N[C@@H](CCCNC(=N)N)C(=O)O)C2Cc3ccccc3C2)C[C@@H]2CCCC[C@@H]21)C1Cc2ccccc2C1 [B9972, DArg[Hyp^3, Igl^5, Oic^7, Igl^8]-BK]
EC50 (human B2R [1]): 158 nM
IC50 (human B2R [2]): 199 nM

COc1cccc2c1C(=O)c1c(O)c3c(c(O)c1C2=O)C[C@@](O)(C(=O)CO)C[C@@H]3O[C@H]1C[C@H](N)[C@H](O)[C@H](C)O1 [DOX, doxorubicin]
BBB crossing and in vivo efficacy in brain cancer (BBB / brain cancer): does not readily cross the BBB and so shows poor efficacy in in vivo models
potency for killing GBM cells in vitro (GBM cells): more potent than temozolomide (TMZ) for killing GBM cells in vitro

CNC[C@H](O)[C@@H](O)[C@H](O)[C@H](O)CO.CNC[C@H](O)[C@@H](O)[C@H](O)[C@H](O)CO.O=C([O-])CN(CCN(CC(=O)[O-])CC(=O)O)CCN(CC(=O)[O-])CC(=O)O.[Gd+3] [Gd-DTPA]
contrast enhancement in the irradiated hemisphere [3]: Minimal contrast enhancement was observed in the irradiated hemisphere

N=C(N)NCCC[C@H](NC(=O)[C@H](Cc1cccs1)NC(=O)CN(C(=O)[C@H](CO)NC(=O)[C@H](Cc1cccs1)NC(=O)CNC(=O)[C@@H]1C[C@@H](O)CN1C(=O)[C@@H]1CCCN1C(=O)[C@@H](N)CCCNC(=N)N)C1CCCCC1)C(=O)O [NG291, [Hyp^3, Thi^5, ^NChg^7, Thi^8]-BK] (H-RP[Hyp]G[2Thi]S[Gly(N-cHex)][2Thi]R-OH)
hypotensive effect (normal mice; high dose i.v. NG291, ketamine/xylazine-anesthetized normal mice, strong but reversible, not shown): about -35 mmHg
tolerability (normal mice; high dose i.v. NG291, normal mice): generally well-tolerated
protection against enzymatic degradation by ACE [4]: fully protected against enzymatic degradation by the angiotensin-converting enzyme
effect on brain tumor burden and number of metastases, in words [5]: did not significantly increase brain tumor burden; also recorded: no difference in terms of both area and number of metastases
EC50 (human B2R [1]): 0.9 nM
IC50 (human B2R [2]): 3 nM

N=C(N)NCCC[C@@H](N)C(=O)N[C@H](Cc1ccccc1)C(=O)N1CCC[C@@H]1C(=O)N[C@H](CO)C(=O)N[C@H](Cc1ccccc1)C(=O)NCC(=O)N1CCC[C@@H]1C(=O)N1CCC[C@@H]1C(=O)N[C@H](CCCNC(=N)N)C(=O)O [RI-BK, D(retroinverso)-BK] (H-[dR][dF][dP][dS][dF]G[dP][dP][dR]-OH; N-terminus and C-terminus assumed)
agonist activity/potency at human B2R, in words (human B2R [1]; IP1, HEK293 cells stably expressing human B2R): no binding affinity and agonist activity at human B2R
EC50 (human B2R [1]): > 10000 nM
binding affinity at human B2R, in words (human B2R [2]): no binding affinity
IC50 (human B2R [2]): > 10000 nM

RPPGFSPFR [BK, H-Arg^1-Pro^2-Pro^3-Gly^4-Phe^5-Ser^6-Pro^7-Phe^8-Arg^9-OH]
brain trafficking of IV-infused leucocytes (leucocytes, brain): can increase brain trafficking of IV-infused leucocytes
binding affinity at human B2R, in words (human B2R [2]): higher binding affinity (IC50)
BTB permeability by the transcellular pathway (BBB / BTB): may increase BTB permeability, as well by means of the transcellular pathway
